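Each compound was tested at five concentrations against cells in 96-well plates for 48 hours. Here, GI50 denotes the concentration required for 50% inhibition of growth.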 Active and inactive are the calls of the source. Rule as the data show it: active = GI50 up to about 1.1 µM and inactive = higher.
Tests used:
Experiment in all cases: NCI anticancer screen, dose series, 48 h
786-0 = tested on: 786-0
COLO 205 = tested on: COLO 205
HCC 2998 = tested on: HCC 2998
LOX IMVI = tested on: LOX IMVI
NCI-H23 = tested on: NCI-H23
NCI-H522 = tested on: NCI-H522
OVCAR-8 = tested on: OVCAR-8
SK-MEL-2 = tested on: SK-MEL-2
SK-MEL-5 = tested on: SK-MEL-5
SK-OV-3 = tested on: SK-OV-3
SN12C = tested on: SN12C
SNB-75 = tested on: SNB-75
U-251 = tested on: U-251
UACC-257 = tested on: UACC-257
HL-60 = tested on: HL-60
SF-268 = tested on: SF-268
SNB-19 = tested on: SNB-19
RPMI-8226 = tested on: RPMI-8226

Measured: GI50

Cc1cnc(SCCN2CCN(C)CC2)nc1-c1cc2ccccc2s1
inactive: 786-0 12 µM | COLO 205 14.3 µM | HCC 2998 13.3 µM | LOX IMVI 5.09 µM | NCI-H23 16.3 µM | NCI-H522 14.7 µM | OVCAR-8 12.6 µM | SK-MEL-2 16.1 µM | SK-MEL-5 3.46 µM | SK-OV-3 3.77 µM | SN12C 9.02 µM | SNB-75 12.2 µM | U-251 8.36 µM | UACC-257 10.3 µM

CC1(C)OC2COC3(CNO)OC(C)(C)OC3C2O1 (configuration not stated)
inactive: 786-0 > 100 µM | COLO 205 > 100 µM | HCC 2998 > 100 µM | HL-60 16.6 µM | LOX IMVI > 100 µM | NCI-H23 > 100 µM | OVCAR-8 > 100 µM | SF-268 > 100 µM | SK-MEL-2 > 100 µM | SK-MEL-5 > 100 µM | SK-OV-3 > 100 µM | SN12C > 100 µM | SNB-19 > 100 µM | SNB-75 > 100 µM | U-251 > 100 µM | UACC-257 > 100 µM

N#CC(C(=O)CCC(=O)Nc1ccc(Cl)cc1)c1ccccc1Cl (configuration not stated)
inactive: 786-0 > 100 µM | COLO 205 > 100 µM | HL-60 > 100 µM | NCI-H23 93.1 µM | NCI-H522 > 100 µM | OVCAR-8 > 100 µM | RPMI-8226 > 100 µM | SF-268 32.1 µM | SK-MEL-2 51.6 µM | SK-MEL-5 > 100 µM | SK-OV-3 > 100 µM | SN12C > 100 µM | SNB-19 > 100 µM | SNB-75 45.9 µM | U-251 > 100 µM | UACC-257 > 100 µM

CC1=C/C(=C2/N=C(N(C)C)SS2)C(C)=N1.[O-][Cl+3]([O-])([O-])O
inactive: 786-0 > 100 µM | COLO 205 3.07 µM | HCC 2998 > 100 µM | HL-60 > 100 µM | LOX IMVI 37.3 µM | NCI-H23 6.47 µM | NCI-H522 4.33 µM | OVCAR-8 > 100 µM | RPMI-8226 > 100 µM | SF-268 > 100 µM | SK-OV-3 > 100 µM | SN12C > 100 µM | SNB-19 > 100 µM | SNB-75 > 100 µM | U-251 > 100 µM | UACC-257 > 100 µM

O=C(O)CC(O)(c1ccccc1C(=O)O)c1cccc2ccccc12 (configuration not stated)
inactive: 786-0 > 100 µM | COLO 205 > 100 µM | HL-60 > 100 µM | LOX IMVI > 100 µM | NCI-H23 > 100 µM | NCI-H522 > 100 µM | OVCAR-8 > 100 µM | RPMI-8226 > 100 µM | SF-268 > 100 µM | SK-MEL-2 > 100 µM | SK-MEL-5 > 100 µM | SK-OV-3 > 100 µM | SN12C > 100 µM | SNB-19 > 100 µM | SNB-75 > 100 µM | U-251 > 100 µM | UACC-257 > 100 µM

COc1nc2c(nc(N)n2C2OC(CO)C(O)C(O)C2O)c(=O)[nH]1 (configuration not stated)
inactive: 786-0 > 100 µM | COLO 205 > 100 µM | HCC 2998 > 100 µM | HL-60 > 100 µM | LOX IMVI > 100 µM | NCI-H23 > 100 µM | NCI-H522 > 100 µM | OVCAR-8 > 100 µM | SF-268 > 100 µM | SK-MEL-5 > 100 µM | SK-OV-3 > 100 µM | SN12C > 100 µM | SNB-19 > 100 µM | SNB-75 > 100 µM | U-251 > 100 µM | UACC-257 > 100 µM

N=C(N)NS(=O)(=O)c1ccc(Nc2c3ccccc3nc3c(C(=O)N4CCN(CCO)CC4)ccc(Cl)c23)cc1
inactive: COLO 205 > 100 µM | HCC 2998 > 100 µM | HL-60 > 100 µM | NCI-H23 > 100 µM | OVCAR-8 > 100 µM | RPMI-8226 > 100 µM | SF-268 > 100 µM | SK-MEL-2 > 100 µM | SK-MEL-5 > 100 µM | SK-OV-3 > 100 µM | SN12C > 100 µM | SNB-19 > 100 µM | SNB-75 > 100 µM | U-251 > 100 µM | UACC-257 > 100 µM

N=C(N)NS(=O)(=O)c1ccc(NC(=O)c2cccn3c(=O)c4ccccc4nc23)cc1
inactive: 786-0 > 100 µM | COLO 205 18.2 µM | HCC 2998 85.7 µM | HL-60 24.5 µM | LOX IMVI 33.7 µM | NCI-H23 38 µM | NCI-H522 35 µM | OVCAR-8 84.5 µM | RPMI-8226 24.9 µM | SF-268 > 100 µM | SK-MEL-5 27 µM | SK-OV-3 > 100 µM | SN12C 70.8 µM | SNB-19 > 100 µM | SNB-75 > 100 µM | U-251 > 100 µM | UACC-257 19.7 µM

— ChEMBL document CHEMBL1201862, “PubChem BioAssay data set” (2004)
